Data reported in PMC6591251, “Discovery of potent necroptosis inhibitors targeting RIPK1 kinase activity for the treatment of inflammatory disorder and cancer metastasis” (Cell Death & Disease, 2019).

Legend:
TRKA = TRKA (Homo sapiens, UniProt P04629); assay: RBC kinase panel; assay type: biochemical; parameters: purchased Reaction Biology Corporation
Procedure: (§1) PK68 was tested at 1 μM in duplicate against a panel of 369 human kinases at Reaction Biology Corporation. Results are viewed in the human kinome phylogenetic tree.
(§2) ^a Compound PK68 was tested at 1 μM in duplicate against 369 kinases using the RBC kinase panel service of Reaction Biology Corporation. All the ATP concentrations used were 10 μM. […] Full protocol details are available at http://www.reactionbiology.com.

TNIK = TNIK (Homo sapiens, UniProt Q9UKE5); assay: RBC kinase panel; assay type: biochemical; parameters: purchased Reaction Biology Corporation
Procedure: as §1, §2

PKA = target: T1, PKA (Homo sapiens, UniProt P17612); assay: RBC kinase panel; assay type: biochemical; conditions: ATP 10 μM, Data1, Data2
T1 construct: purchased Reaction Biology Corporation
Method in brief: (§3)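 In this selectivity screen, one compound concentration (1 μM) was applied to 369 human kinases, with duplicates and 10 μM ATP in each reaction.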

SIK2 = target: T2, SIK2 (Homo sapiens, UniProt Q9H0K1); assay: RBC kinase panel; assay type: biochemical; conditions: ATP 10 μM, Data1, Data2
T2 construct: purchased Reaction Biology Corporation
Method in brief: as §3

MAK = target: T3, MAK (Homo sapiens, UniProt P20794); assay: RBC kinase panel; assay type: biochemical; conditions: ATP 10 μM, Data1, Data2
T3 construct: purchased Reaction Biology Corporation
Method in brief: as §3

CAMK2a = target: T4, CAMK2a (Homo sapiens, UniProt Q9UQM7); assay: RBC kinase panel; assay type: biochemical; conditions: ATP 10 μM, Data1, Data2
T4 construct: purchased Reaction Biology Corporation
Method in brief: as §3

MSK2/RPS6KA4 = target: T5, MSK2/RPS6KA4 (Homo sapiens, UniProt O75676); assay: RBC kinase panel; assay type: biochemical; conditions: ATP 10 μM, Data1, Data2
T5 construct: purchased Reaction Biology Corporation
Method in brief: as §3

FGFR3 = target: T6, FGFR3 (Homo sapiens, UniProt P22607); assay: RBC kinase panel; assay type: biochemical; conditions: ATP 10 μM, Data1, Data2
T6 construct: purchased Reaction Biology Corporation
Method in brief: as §3

SLK/STK2 = target: T7, SLK/STK2 (Homo sapiens, UniProt Q9H2G2); assay: RBC kinase panel; assay type: biochemical; conditions: ATP 10 μM, Data1, Data2
T7 construct: purchased Reaction Biology Corporation
Method in brief: as §3

CDK6/cyclin D3 = target: T8, CDK6/cyclin D3 (Homo sapiens, UniProt Q00534); assay: RBC kinase panel; assay type: biochemical; conditions: ATP 10 μM, Data1, Data2
T8 construct: purchased Reaction Biology Corporation
Method in brief: as §3

Aurora A = target: T9, Aurora A (Homo sapiens, UniProt O14965); assay: RBC kinase panel; assay type: biochemical; conditions: ATP 10 μM, Data1, Data2
T9 construct: purchased Reaction Biology Corporation
Method in brief: as §3

MELK = target: T10, MELK (Homo sapiens, UniProt Q14680); assay: RBC kinase panel; assay type: biochemical; conditions: ATP 10 μM, Data1, Data2
T10 construct: purchased Reaction Biology Corporation
Method in brief: as §3

PDGFRa = target: T11, PDGFRa (Homo sapiens, UniProt P16234); assay: RBC kinase panel; assay type: biochemical; conditions: ATP 10 μM, Data1, Data2
T11 construct: purchased Reaction Biology Corporation
Method in brief: as §3

FYN = target: T12, FYN (Homo sapiens, UniProt P06241); assay: RBC kinase panel; assay type: biochemical; conditions: ATP 10 μM, Data1, Data2
T12 construct: purchased Reaction Biology Corporation
Method in brief: as §3

FGFR2 = target: T13, FGFR2 (Homo sapiens, UniProt P21802); assay: RBC kinase panel; assay type: biochemical; conditions: ATP 10 μM, Data1, Data2
T13 construct: purchased Reaction Biology Corporation
Method in brief: as §3

PAK5 = target: T14, PAK5 (Homo sapiens, UniProt Q9P286); assay: RBC kinase panel; assay type: biochemical; conditions: ATP 10 μM, Data1, Data2
T14 construct: purchased Reaction Biology Corporation
Method in brief: as §3

BMPR2 = target: T15, BMPR2 (Homo sapiens, UniProt Q13873); assay: RBC kinase panel; assay type: biochemical; conditions: ATP 10 μM, Data1, Data2
T15 construct: purchased Reaction Biology Corporation
Method in brief: as §3

LIMK1 = target: T16, LIMK1 (Homo sapiens, UniProt P53667); assay: RBC kinase panel; assay type: biochemical; conditions: ATP 10 μM, Data1, Data2
T16 construct: purchased Reaction Biology Corporation
Method in brief: as §3

DYRK4 = target: T17, DYRK4 (Homo sapiens, UniProt Q9NR20); assay: RBC kinase panel; assay type: biochemical; conditions: ATP 10 μM, Data1, Data2
T17 construct: purchased Reaction Biology Corporation
Method in brief: as §3

ERBB4/HER4 = target: T18, ERBB4/HER4 (Homo sapiens, UniProt Q15303); assay: RBC kinase panel; assay type: biochemical; conditions: ATP 10 μM, Data1, Data2
T18 construct: purchased Reaction Biology Corporation
Method in brief: as §3

TYK2 = target: T19, TYK2 (Homo sapiens, UniProt P29597); assay: RBC kinase panel; assay type: biochemical; conditions: ATP 10 μM, Data1, Data2
T19 construct: purchased Reaction Biology Corporation
Method in brief: as §3

ARAF = target: T20, ARAF (Homo sapiens, UniProt P10398); assay: RBC kinase panel; assay type: biochemical; conditions: ATP 10 μM, Data1, Data2
T20 construct: purchased Reaction Biology Corporation
Method in brief: as §3

ABL1 = target: T21, ABL1 (Homo sapiens, UniProt P00519); assay: RBC kinase panel; assay type: biochemical; conditions: ATP 10 μM, Data1, Data2
T21 construct: purchased Reaction Biology Corporation
Method in brief: as §3

MAPKAPK5/PRAK = target: T22, MAPKAPK5/PRAK (Homo sapiens, UniProt Q8IW41); assay: RBC kinase panel; assay type: biochemical; conditions: ATP 10 μM, Data1, Data2
T22 construct: purchased Reaction Biology Corporation
Method in brief: as §3

GRK1 = target: T23, GRK1 (Homo sapiens, UniProt Q15835); assay: RBC kinase panel; assay type: biochemical; conditions: ATP 10 μM, Data1, Data2
T23 construct: purchased Reaction Biology Corporation
Method in brief: as §3

PLK1 = target: T24, PLK1 (Homo sapiens, UniProt P53350); assay: RBC kinase panel; assay type: biochemical; conditions: ATP 10 μM, Data1, Data2
T24 construct: purchased Reaction Biology Corporation
Method in brief: as §3

CDK5/p25 = target: T25, CDK5/p25 (Homo sapiens, UniProt Q00535); assay: RBC kinase panel; assay type: biochemical; conditions: ATP 10 μM, Data1, Data2
T25 construct: purchased Reaction Biology Corporation
Method in brief: as §3

TXK = target: T26, TXK (Homo sapiens, UniProt P42681); assay: RBC kinase panel; assay type: biochemical; conditions: ATP 10 μM, Data1, Data2
T26 construct: purchased Reaction Biology Corporation
Method in brief: as §3

human and mouse cells = assay: RIPK1-dependent necroptosis (abstract summary); assay type: cell-based; conditions: read-out: EC50, inhibition of RIPK1-dependent necroptosis
Excerpt: Necroptosis is a form of regulated necrosis controlled by receptor-interacting kinase 1 (RIPK1 or RIP1), RIPK3 (RIP3), and pseudokinase mixed lineage kinase domain-like protein (MLKL). […] Herein, we discovered the small-molecule PK6 and its derivatives as a novel class of necroptosis inhibitors that directly block the kinase activity of RIPK1. […] PK68 efficiently blocks cellular activation of RIPK1, RIPK3, and MLKL upon necroptosis stimuli. […] Importantly, PK68 provides strong protection against TNF-α-induced systemic inflammatory response syndrome in vivo.

Chain of TNIK (Q9UKE5 whole entry): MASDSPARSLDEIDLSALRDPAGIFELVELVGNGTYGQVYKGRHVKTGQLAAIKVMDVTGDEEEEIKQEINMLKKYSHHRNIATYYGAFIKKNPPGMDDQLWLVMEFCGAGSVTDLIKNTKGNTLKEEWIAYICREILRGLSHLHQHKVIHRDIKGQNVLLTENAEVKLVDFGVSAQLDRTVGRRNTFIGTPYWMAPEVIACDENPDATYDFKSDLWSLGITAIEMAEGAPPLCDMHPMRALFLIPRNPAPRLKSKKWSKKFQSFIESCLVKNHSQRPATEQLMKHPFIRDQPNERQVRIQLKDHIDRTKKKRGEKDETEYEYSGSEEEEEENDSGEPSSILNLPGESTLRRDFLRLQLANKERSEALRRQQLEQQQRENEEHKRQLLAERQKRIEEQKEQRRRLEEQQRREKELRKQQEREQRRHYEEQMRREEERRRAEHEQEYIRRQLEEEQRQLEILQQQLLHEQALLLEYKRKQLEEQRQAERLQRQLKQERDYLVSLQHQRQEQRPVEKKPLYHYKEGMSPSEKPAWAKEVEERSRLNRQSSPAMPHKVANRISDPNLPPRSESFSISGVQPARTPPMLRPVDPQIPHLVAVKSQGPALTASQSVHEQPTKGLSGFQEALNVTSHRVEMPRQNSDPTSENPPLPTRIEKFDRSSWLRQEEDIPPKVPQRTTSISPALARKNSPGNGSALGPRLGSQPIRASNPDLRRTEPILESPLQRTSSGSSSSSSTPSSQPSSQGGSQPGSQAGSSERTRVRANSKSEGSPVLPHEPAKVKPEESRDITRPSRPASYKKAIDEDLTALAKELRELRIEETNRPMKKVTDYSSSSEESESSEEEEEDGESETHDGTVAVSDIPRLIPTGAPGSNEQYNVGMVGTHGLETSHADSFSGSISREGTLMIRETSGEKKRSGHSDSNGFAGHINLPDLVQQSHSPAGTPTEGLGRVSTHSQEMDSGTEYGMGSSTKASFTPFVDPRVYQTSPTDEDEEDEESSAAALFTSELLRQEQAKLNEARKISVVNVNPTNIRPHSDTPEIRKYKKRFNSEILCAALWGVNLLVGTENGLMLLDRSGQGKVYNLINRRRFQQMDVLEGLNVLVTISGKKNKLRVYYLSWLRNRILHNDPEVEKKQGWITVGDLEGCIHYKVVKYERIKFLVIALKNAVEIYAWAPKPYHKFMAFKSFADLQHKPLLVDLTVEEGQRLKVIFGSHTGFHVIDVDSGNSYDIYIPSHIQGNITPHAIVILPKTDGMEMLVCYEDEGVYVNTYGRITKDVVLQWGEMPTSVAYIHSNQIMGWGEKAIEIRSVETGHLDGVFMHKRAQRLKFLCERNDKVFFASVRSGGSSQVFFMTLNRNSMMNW
Chain of TRKA (P04629 33-796): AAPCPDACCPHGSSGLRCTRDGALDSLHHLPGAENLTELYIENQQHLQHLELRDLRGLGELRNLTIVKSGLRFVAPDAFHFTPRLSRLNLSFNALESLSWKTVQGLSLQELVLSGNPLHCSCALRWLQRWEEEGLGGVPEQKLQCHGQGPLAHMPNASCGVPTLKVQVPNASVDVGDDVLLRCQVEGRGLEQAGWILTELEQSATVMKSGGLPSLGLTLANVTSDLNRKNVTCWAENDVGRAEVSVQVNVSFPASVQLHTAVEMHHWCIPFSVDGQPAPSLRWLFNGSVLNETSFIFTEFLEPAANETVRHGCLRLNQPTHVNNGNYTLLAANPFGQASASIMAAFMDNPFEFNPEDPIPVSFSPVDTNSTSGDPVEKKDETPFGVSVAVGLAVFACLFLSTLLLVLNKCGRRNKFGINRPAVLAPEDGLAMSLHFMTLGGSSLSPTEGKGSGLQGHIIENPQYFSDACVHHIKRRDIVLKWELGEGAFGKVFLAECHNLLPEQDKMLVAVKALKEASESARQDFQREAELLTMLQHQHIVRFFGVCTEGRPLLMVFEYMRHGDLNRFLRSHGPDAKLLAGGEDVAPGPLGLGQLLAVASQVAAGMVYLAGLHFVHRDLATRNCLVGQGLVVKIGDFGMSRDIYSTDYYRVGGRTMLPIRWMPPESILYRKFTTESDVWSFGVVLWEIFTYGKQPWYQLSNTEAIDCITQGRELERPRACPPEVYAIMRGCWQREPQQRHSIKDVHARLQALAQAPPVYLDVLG
T3 sequence (P20794 whole entry): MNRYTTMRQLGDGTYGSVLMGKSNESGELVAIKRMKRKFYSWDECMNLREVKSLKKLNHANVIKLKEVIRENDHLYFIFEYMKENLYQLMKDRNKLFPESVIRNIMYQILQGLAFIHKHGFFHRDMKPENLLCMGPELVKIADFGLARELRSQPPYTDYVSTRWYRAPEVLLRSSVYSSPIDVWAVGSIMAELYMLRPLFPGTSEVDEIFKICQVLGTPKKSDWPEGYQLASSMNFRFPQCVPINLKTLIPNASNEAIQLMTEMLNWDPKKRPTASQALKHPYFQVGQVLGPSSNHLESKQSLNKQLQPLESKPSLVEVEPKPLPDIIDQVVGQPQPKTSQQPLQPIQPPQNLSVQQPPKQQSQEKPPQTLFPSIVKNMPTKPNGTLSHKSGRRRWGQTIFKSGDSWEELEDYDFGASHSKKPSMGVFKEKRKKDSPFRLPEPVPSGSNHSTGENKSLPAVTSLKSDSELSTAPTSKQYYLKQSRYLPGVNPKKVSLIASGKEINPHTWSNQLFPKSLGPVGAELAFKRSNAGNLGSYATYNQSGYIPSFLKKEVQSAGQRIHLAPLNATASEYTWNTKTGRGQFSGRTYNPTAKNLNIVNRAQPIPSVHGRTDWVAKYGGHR
T12 sequence (P06241 whole entry): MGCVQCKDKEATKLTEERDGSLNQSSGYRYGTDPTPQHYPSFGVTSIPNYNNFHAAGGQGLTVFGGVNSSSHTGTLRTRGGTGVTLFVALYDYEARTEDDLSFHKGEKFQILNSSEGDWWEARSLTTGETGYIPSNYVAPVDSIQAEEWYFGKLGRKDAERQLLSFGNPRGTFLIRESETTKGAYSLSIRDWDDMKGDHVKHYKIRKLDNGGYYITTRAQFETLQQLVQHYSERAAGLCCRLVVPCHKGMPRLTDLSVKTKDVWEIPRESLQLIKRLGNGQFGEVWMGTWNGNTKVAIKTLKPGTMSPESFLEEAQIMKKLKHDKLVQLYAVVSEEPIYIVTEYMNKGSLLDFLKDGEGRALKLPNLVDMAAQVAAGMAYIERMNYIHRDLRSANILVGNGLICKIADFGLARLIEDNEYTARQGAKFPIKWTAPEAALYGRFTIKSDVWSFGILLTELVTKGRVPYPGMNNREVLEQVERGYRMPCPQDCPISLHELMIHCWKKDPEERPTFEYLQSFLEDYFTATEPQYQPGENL
T7 sequence (Q9H2G2 whole entry): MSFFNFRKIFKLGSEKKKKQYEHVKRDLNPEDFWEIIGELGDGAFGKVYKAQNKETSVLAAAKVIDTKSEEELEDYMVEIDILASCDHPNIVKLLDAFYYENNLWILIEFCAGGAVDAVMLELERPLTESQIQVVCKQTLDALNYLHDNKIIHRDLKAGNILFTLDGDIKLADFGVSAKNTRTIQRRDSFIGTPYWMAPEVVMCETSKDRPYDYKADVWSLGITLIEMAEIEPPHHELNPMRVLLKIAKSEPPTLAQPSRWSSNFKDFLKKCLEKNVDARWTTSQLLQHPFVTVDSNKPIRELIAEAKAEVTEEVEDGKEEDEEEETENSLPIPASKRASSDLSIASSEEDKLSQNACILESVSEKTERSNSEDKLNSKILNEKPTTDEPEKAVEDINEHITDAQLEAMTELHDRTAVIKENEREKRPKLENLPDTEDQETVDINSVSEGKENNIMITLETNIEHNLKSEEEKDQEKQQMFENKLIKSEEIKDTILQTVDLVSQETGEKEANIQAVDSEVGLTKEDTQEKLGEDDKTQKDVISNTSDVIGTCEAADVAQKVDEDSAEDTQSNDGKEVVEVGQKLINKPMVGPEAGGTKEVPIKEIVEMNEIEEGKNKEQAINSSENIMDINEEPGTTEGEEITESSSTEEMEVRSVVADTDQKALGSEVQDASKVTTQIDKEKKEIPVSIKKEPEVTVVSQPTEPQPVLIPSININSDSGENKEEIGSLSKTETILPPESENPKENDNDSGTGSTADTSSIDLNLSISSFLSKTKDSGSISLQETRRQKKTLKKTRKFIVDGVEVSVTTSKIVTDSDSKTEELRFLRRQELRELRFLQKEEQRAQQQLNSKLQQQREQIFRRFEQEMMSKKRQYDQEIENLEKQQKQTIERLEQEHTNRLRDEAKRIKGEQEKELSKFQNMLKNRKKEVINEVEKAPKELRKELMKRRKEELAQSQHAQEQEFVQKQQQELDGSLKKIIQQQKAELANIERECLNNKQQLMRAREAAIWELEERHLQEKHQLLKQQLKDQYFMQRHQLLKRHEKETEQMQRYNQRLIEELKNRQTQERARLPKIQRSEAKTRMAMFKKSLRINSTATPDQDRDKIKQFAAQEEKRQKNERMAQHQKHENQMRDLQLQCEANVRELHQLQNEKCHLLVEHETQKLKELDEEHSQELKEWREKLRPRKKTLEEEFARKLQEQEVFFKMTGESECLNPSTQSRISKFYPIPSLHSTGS
T17 sequence (Q9NR20 whole entry): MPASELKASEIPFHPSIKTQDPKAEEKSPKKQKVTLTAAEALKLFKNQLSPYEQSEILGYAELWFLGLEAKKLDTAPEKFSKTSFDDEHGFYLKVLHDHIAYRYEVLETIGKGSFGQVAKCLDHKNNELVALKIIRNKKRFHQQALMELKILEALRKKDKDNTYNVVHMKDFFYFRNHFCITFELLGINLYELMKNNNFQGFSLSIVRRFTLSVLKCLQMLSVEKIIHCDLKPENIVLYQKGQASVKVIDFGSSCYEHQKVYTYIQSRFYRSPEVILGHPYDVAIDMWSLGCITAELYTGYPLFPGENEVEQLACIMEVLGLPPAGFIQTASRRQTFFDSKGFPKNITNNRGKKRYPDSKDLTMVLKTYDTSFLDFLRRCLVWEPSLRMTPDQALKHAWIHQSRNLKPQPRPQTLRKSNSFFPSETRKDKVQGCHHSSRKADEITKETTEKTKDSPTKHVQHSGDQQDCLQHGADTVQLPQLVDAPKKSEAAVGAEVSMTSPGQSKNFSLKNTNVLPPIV

With `CC(=O)Nc1nc2ccc(-c3cnc(C)c(NC(=O)OC4CCCCC4)c3)cc2s1` [PK68, cyclohexyl (5-(2-acetamidobenzo[d]thiazol-6-yl)-2-methylpyridin-3-yl)carbamate] the Activity% (TRKA; 1 μM, ATP 10 μM, Data1, Data2) was 28.42%, the activity at 1 µM (TRKA; 1 μM, ATP 10 μM, Data1, Data2) was 29.1% and the inhibition at 1 µM (TRKA; at 1000 nM) was > 50%. The Activity% (TNIK; 1 μM, ATP 10 μM, Data1, Data2) was 38.77%, the activity at 1 µM (TNIK; 1 μM, ATP 10 μM, Data1, Data2) was 39% and the inhibition at 1 µM (TNIK; at 1000 nM) was > 50%. The Activity% (PKA; 1 μM) was 105.35%, the activity at 1 µM (PKA) was 105% and the Activity% (SIK2; 1 μM) was 94.58%. For the same compound, the activity at 1 µM (SIK2) was 95.5%, the Activity% (MAK; 1 μM) was 96.81% and the activity at 1 µM (MAK) was 97%. It also gave an Activity% (CAMK2a; 1 μM) of 99.17%, an activity at 1 µM (CAMK2a) of 100% and an Activity% (MSK2/RPS6KA4; 1 μM) of 106.42%. It also gave an activity at 1 µM (MSK2/RPS6KA4) of 107%, an Activity% (FGFR3; 1 μM) of 90.12% and an activity at 1 µM (FGFR3) of 90.5%. For the same compound, the Activity% (SLK/STK2; 1 μM) was 91.29%, the activity at 1 µM (SLK/STK2) was 91.9% and the Activity% (CDK6/cyclin D3; 1 μM) was 81.98%. For the same compound, the activity at 1 µM (CDK6/cyclin D3) was 82.6%, the Activity% (Aurora A; 1 μM) was 95.24% and the activity at 1 µM (Aurora A) was 95.4%. The Activity% (MELK; 1 μM) was 100.40%, the activity at 1 µM (MELK) was 102% and the Activity% (PDGFRa; 1 μM) was 83.70%. It also gave an activity at 1 µM (PDGFRa) of 84.1%, an Activity% (FYN; 1 μM) of 102.88% and an activity at 1 µM (FYN) of 104%. It also gave an Activity% (FGFR2; 1 μM) of 88.90%, an activity at 1 µM (FGFR2) of 91% and an Activity% (PAK5; 1 μM) of 98.16%. For the same compound, the activity at 1 µM (PAK5) was 102%, the Activity% (BMPR2; 1 μM) was 95.12% and the activity at 1 µM (BMPR2) was 95.5%. It also gave an Activity% (LIMK1; 1 μM) of 63.37%, an activity at 1 µM (LIMK1) of 63.4% and an Activity% (DYRK4; 1 μM) of 102.24%. For the same compound, the activity at 1 µM (DYRK4) was 102%, the Activity% (ERBB4/HER4; 1 μM) was 99.02% and the activity at 1 µM (ERBB4/HER4) was 99.7%. The Activity% (TYK2; 1 μM) was 100.62%, the activity at 1 µM (TYK2) was 106% and the Activity% (ARAF; 1 μM) was 60.01%. For the same compound, the activity at 1 µM (ARAF) was 60.5%, the Activity% (ABL1; 1 μM) was 74.18% and the activity at 1 µM (ABL1) was 74.3%. The Activity% (MAPKAPK5/PRAK; 1 μM) was 97.02%, the activity at 1 µM (MAPKAPK5/PRAK) was 97% and the Activity% (GRK1; 1 μM) was 99.42%. For the same compound, the activity at 1 µM (GRK1) was 100%, the Activity% (PLK1; 1 μM) was 93.68% and the activity at 1 µM (PLK1) was 94.6%. For the same compound, the Activity% (CDK5/p25; 1 μM) was 92.68%, the activity at 1 µM (CDK5/p25) was 94.1% and the Activity% (TXK; 1 μM) was 99.58%. It also gave an activity at 1 µM (TXK) of 101% and an EC50 (human and mouse cells) of 14 to 22 nM.
